In patent publication US20250250251A1, “PIPERIDINYLPYRIDINYLCARBONITRILE DERIVATIVES AS INHIBITORS OF GLUTAMINYL-PEPTIDE CYCLOTRANSFERASE AND GLUTAMINYL-PEPTIDE CYCLOTRANSFERASE LIKE PROTEIN” (Boehringer Ingelheim International GmbH, priority 2024, published 2025):

Tested on: CACO-2 cells
Assay: Assay C: permeability in CACO-2 cells
Type: in vitro ADME
Conditions: pairs with and without 4-fluoropiperidyl, CACO2 cells
Method: Caco-2 cells (1-2×10^5 cells/1 cm^2 area) are seeded on filter inserts (Costar transwell polycarbonate or PET filters, 0.4 μm pore size) and cultured (DMEM) for 10 to 25 days. Compounds are dissolved in appropriate solvent (like DMSO, 1-20 mM stock solutions). […] The transport solution (TL) is applied to the apical or basolateral donor side for measuring A-B or B-A permeability (3 filter replicates), respectively. Samples are collected at the start and end of experiment from the donor and at various time intervals for up to 2 hours also from the receiver side for concentration measurement by HPLC-MS/MS or scintillation counting. Sampled receiver volumes are replaced with fresh receiver solution.
Efflux ratio (ER)=permeability B−A/permeability A−B

Compound	CACO2 Perm.
Cn1cnnc1C1CCN(c2c(C#N)cc(C(F)(F)F)nc2-c2cnc3nn(C(C)(C)C)c(Cl)c3c2)CC1	1.0 10^−6 cm/sec
Cn1cnnc1C1CCN(c2c(C#N)cc(Cl)cc2-c2ccc(F)nc2)CC1 [Compound 18 in WO 2024/020517]	23.0 10^−6 cm/sec
Cn1cnnc1C1CCN(c2c(C#N)cc(C(F)(F)F)cc2-c2ccc(F)nc2)CC1 [Compound 70 in WO 2024/020517]	9.0 10^−6 cm/sec
Cn1cnnc1C1CCN(c2c(C#N)cc(F)cc2-c2ccc(F)nc2)CC1 [Compound 130 in WO 2024/020517]	24.0 10^−6 cm/sec
Cn1cnnc1C1(F)CCN(c2c(C#N)cc(C(F)(F)F)nc2-c2cnc3nn(C(C)(C)C)c(Cl)c3c2)CC1 [Example 3 in EP 23189886.7]	47.0 10^−6 cm/sec
Cn1cnnc1C1(F)CCN(c2c(C#N)cc(C(F)(F)F)nc2-c2cnc3nn(C(C)(C)C)c(C(F)(F)F)c3c2)CC1 [Example 4 in EP 23189886.7]	99.5 10^−6 cm/sec

Continued, values first:

CACO2 Perm.	Compound
1.8 10^−6 cm/sec	Cn1cnnc1C1CCN(c2c(-c3ccc(F)nc3)ccnc2C#N)CC1 [Compound 132 in WO 2024/020517]
4.8 10^−6 cm/sec	Cn1cnnc1C1CCN(c2c(C#N)ccnc2-c2ccc(F)nc2)CC1 [Compound 133 in WO 2024/020517]
28.0 10^−6 cm/sec	Cn1cnnc1C1(F)CCN(c2c(C#N)ccnc2-c2ccc(F)nc2)CC1 [Example 1 in EP 22188580.9]
40.5 10^−6 cm/sec	Cn1cnnc1C1(F)CCN(c2c(C#N)cc(C(F)(F)F)cc2-c2ccc(F)nc2)CC1 [Example 4 in EP 23161417.3]
44.0 10^−6 cm/sec	Cn1cnnc1C1(F)CCN(c2c(C#N)cc(F)cc2-c2ccc(F)nc2)CC1 [Example 6 in EP 23161417.3]
